Measured values taken from patent US20140107100A1, “Benzoxazepines as Inhibitors of PI3K/mTOR and Methods of Their Use and Manufacture” (EXELIXIS, INC., priority 2010, published 2014).
pIC50: −log10 of the molar value.

Target: mTOR/GbL/Raptor (mTORC1) (Homo sapiens, UniProt P42345)
Test: mTOR/GbL/Raptor (mTORC1) ELISA assay, phosphorylation of 4E-BP1
Type: biochemical
Details: 0.2 nM mTORC1, 40 uM ATP, 50 nM NHis-tagged 4E-BP1, 120 minutes; read-out: IC50 in this assay (mTORC1 ELISA)
Experimental: The measurement of mTORC1 enzyme activity was performed in an ELISA assay format following the phosphorylation of 4E-BP1 protein. All experiments were performed in the 384-well format. Generally, 0.5 μL DMSO containing varying concentrations of the test Compound was mixed with 15 μL enzyme solution. Kinase reactions were initiated with the addition of 15 μL of substrates-containing solution. The assay conditions were-as follows; 0.2 nM mTORC1, 40 uM ATPand 50 nM NHis-tagged4E-BP1 in20 mM Hepes, pH 7.2, 1 mM DTT, 50 mMNaC1, 10 mM MnC12, 0.02 mg/mL BSA, 0.01% CHAPS, 50 mM β-glycerophosphate. Following an incubation of 120 minutes at anibient temperature, 20 μL of the reaction volume was transferred to a Ni-Chelate-coated 384-well plate. The binding step of the 4E-BP1 protein proceeded for 60 minutes, followed by washing 4 times each with 50 uL of Tris-buffered saline solution (TBS). Anti-phospho-4E-BPl rabbit-IgG ([…]. 1:5000) in 5% BSA-TBST (0.2% Tween-20 in TBS) was added and further incubated for 60 minutes. Incubation with a secondary HRP-tagged anti-IgG was similarly performed after washing off the primary antibody (4 washes of 50 μL). Following the final wash step with TBST, 20 μL of SuperSignal ELISA Femto (Pierce Biotechnology) was added and the luminescence measured using an En Vision plate reader.

Row | pIC50 | SMILES
1 | ≥ 7.00 | Cc1nc2ccc(-c3cc(C)c4c(c3)CN(c3nc(N)nc(C)c3C(C)C)CCO4)cc2[nH]1 [Compound 2, 4-methyl-5-(1-methylethyl)-6-[9-methyl-7-(2-methyl-1H-benzimidazol-6-yl)-2,3-dihydro-1,4-benzoxazepin-4(5H)-yl]pyrimidin-2-amine]
2 | ≥ 7.00 | Cc1cc(-c2cnc3sc(N)nc3c2)cc2c1OCCN(c1nc(N)nc(C)c1C(C)C)C2 [Compound 3, 6-{4-[2-amino-6-methyl-5-(1-methylethyl)pyrimidin-4-yl]-9-methyl-2,3,4,5-tetrahydro-1,4-benzoxazepin-7-yl}[1,3]thiazolo[5,4-b]pyridin-2-amine]
3 | ≥ 7.00 | Cc1cc(-c2cnc(N)c(S(N)(=O)=O)c2)cc2c1OCCN(c1nc(N)nc(C)c1C(C)C)C2 [Compound 5, 2-amino-5-{4-[2-amino-6-methyl-5-(1-methylethyl)pyrimidin-4-yl]-9-methyl-2,3,4,5-tetrahydro-1,4-benzoxazepin-7-yl}pyridine-3-sulfonamide]
4 | ≥ 7.00 | Cc1cc(-c2cnc(Cl)c(NS(C)(=O)=O)c2)cc2c1OCCN(c1nc(N)nc(C)c1C(C)C)C2 [Compound 6, N-(5-{4-[2-amino-6-methyl-5-(1-methylethyl)pyrimidin-4-yl]-9-methyl-2,3,4,5-tetrahydro-1,4-benzoxazepin-7-yl}-2-chloropyridin-3-yl)methanesulfonamide]
5 | 6.30 to 7.00 | Cc1cc(-c2cnc3sc(N)nc3c2)cc2c1OCCN(c1nc(N)nc(C)c1C)C2 [Compound 7, 6-[4-(2-amino-5,6-dimethylpyrimidin-4-yl)-9-methyl-2,3,4,5-tetrahydro-1,4-benzoxazepin-7-yl][1,3]thiazolo[5,4-b]pyridin-2-amine]
6 | ≥ 7.00 | CCc1c(C)nc(N)nc1N1CCOc2c(C)cc(-c3cnc4sc(N)nc4c3)cc2C1 [Compound 8, 6-[4-(2-amino-5-ethyl-6-methylpyrimidin-4-yl)-9-methyl-2,3,4,5-tetrahydro-1,4-benzoxazepin-7-yl][1,3]thiazolo[5,4-b]pyridin-2-amine]
7 | ≥ 7.00 | C=Cc1c(C)nc(N)nc1N1CCOc2c(C)cc(-c3cnc4sc(N)nc4c3)cc2C1 [Compound 9, 6-[4-(2-amino-5-ethenyl-6-methylpyrimidin-4-yl)-9-methyl-2,3,4,5-tetrahydro-1,4-benzoxazepin-7-yl][1,3]thiazolo[5,4-b]pyridin-2-amine]
8 | ≥ 7.00 | Cc1cc(-c2cnc3sc(N)nc3c2)cc2c1OCCN(c1nc(N)nc3c1CC(C)(C)CC3)C2 [Compound 10, 4-[7-(2-amino[1,3]thiazolo[5,4-b]pyridin-6-yl)-9-methyl-2,3-dihydro-1,4-benzoxazepin-4(5H)-yl]-6,6-dimethyl-5,6,7,8-tetrahydroquinazolin-2-amine]
9 | ≥ 7.00 | Cc1cc(-c2cnc3sc(N)nc3c2)cc2c1OCCN(c1nc(N)ncc1C(C)C)C2 [Compound 11, 6-{4-[2-amino-5-(1-methylethyl)pyrimidin-4-yl]-9-methyl-2,3,4,5-tetrahydro-1,4-benzoxazepin-7-yl}[1,3]thiazolo[5,4-b]pyridin-2-amine]
10 | ≥ 7.00 | Cc1cc(-c2cnc3sc(N)nc3c2)cc2c1OCCN(c1nc(N)ncc1C(F)(F)F)C2 [Compound 12, 6-{4-[2-amino-5-(trifluoromethyl)pyrimidin-4-yl]-9-methyl-2,3,4,5-tetrahydro-1,4-benzoxazepin-7-yl}[1,3]thiazolo[5,4-b]pyridin-2-amine]
11 | 6.30 to 7.00 | Cc1cc(-c2cnc3sc(N)nc3c2)cc2c1OCCN(c1ncc(C(F)(F)F)c(N)n1)C2 [Compound 13, 6-{4-[4-amino-5-(trifluoromethyl)pyrimidin-2-yl]-9-methyl-2,3,4,5-tetrahydro-1,4-benzoxazepin-7-yl}[1,3]thiazolo[5,4-b]pyridin-2-amine]
12 | ≥ 7.00 | Cc1cc(-c2cnc(Cl)c(NS(C)(=O)=O)c2)cc2c1OCCN(c1nc(N)ncc1C(F)(F)F)C2 [Compound 14, N-(5-{4-[2-amino-5-(trifluoromethyl)pyrimidin-4-yl]-9-methyl-2,3,4,5-tetrahydro-1,4-benzoxazepin-7-yl}-2-chloropyridin-3-yl)methanesulfonamide]
13 | 6.30 to 7.00 | Cc1cc(-c2cnc(Cl)c(NS(C)(=O)=O)c2)cc2c1OCCN(c1ncc(C(F)(F)F)c(N)n1)C2 [Compound 15, N-(5-{4-[4-amino-5-(trifluoromethyl)pyrimidin-2-yl]-9-methyl-2,3,4,5-tetrahydro-1,4-benzoxazepin-7-yl}-2-chloropyridin-3-yl)methanesulfonamide]
14 | ≥ 7.00 | COCCc1c(C)nc(N)nc1N1CCOc2c(C)cc(-c3cnc4sc(N)nc4c3)cc2C1 [Compound 16, 6-(4-{2-amino-6-methyl-5-[2-(methyloxy)ethyl]pyrimidin-4-yl}-9-methyl-2,3,4,5-tetrahydro-1,4-benzoxazepin-7-yl)[1,3]thiazolo[5,4-b]pyridin-2-amine]
15 | 6.30 to 7.00 | Cc1cc(-c2cncc(NS(C)(=O)=O)c2)cc2c1OCCN(c1nc(N)nc(C)c1C(C)C)C2 [Compound 18, N-(5-{4-[2-amino-6-methyl-5-(1-methylethyl)pyrimidin-4-yl]-9-methyl-2,3,4,5-tetrahydro-1,4-benzoxazepin-7-yl}pyridin-3-yl)methanesulfonamide]
16 | ≥ 7.00 | Cc1nc2c(c(N3CCOc4c(C)cc(-c5cnc6sc(N)nc6c5)cc4C3)n1)CC(C)(C)CC2 [Compound 20, 6-[9-methyl-4-(2,6,6-trimethyl-5,6,7,8-tetrahydroquinazolin-4-yl)-2,3,4,5-tetrahydro-1,4-benzoxazepin-7-yl][1,3]thiazolo[5,4-b]pyridin-2-amine]
17 | ≥ 7.00 | COc1ncc(-c2cc(C)c3c(c2)CN(c2nc(N)nc(C)c2C(C)C)CCO3)cc1NS(C)(=O)=O [Compound 21, N-[5-{4-[2-amino-6-methyl-5-(1-methylethyl)pyrimidin-4-yl]-9-methyl-2,3,4,5-tetrahydro-1,4-benzoxazepin-7-yl}-2-(methyloxy)pyridin-3-yl]methanesulfonamide]
18 | ≥ 7.00 | CNC(=O)c1sc(N2CCOc3c(C)cc(-c4cnc(Cl)c(NS(C)(=O)=O)c4)cc3C2)nc1C(C)C [Compound 22, 2-[7-{6-chloro-5-[(methylsulfonyl)amino]pyridin-3-yl}-9-methyl-2,3-dihydro-1,4-benzoxazepin-4(5H)-yl]-N-methyl-4-(1-methylethyl)-1,3-thiazole-5-carboxamide]
19 | ≥ 7.00 | Cc1cc(-c2cnc3sc(N)nc3c2)cc2c1OCCN(c1ncnc3c1CC(C)(C)C=C3)C2 [Compound 23, 6-[4-(6,6-dimethyl-5,6-dihydroquinoazolin-4-yl)-9-methyl-2,3,4,5-tetrahydro-1,4-benzoxazepin-7-yl][1,3]thiazolo[5,4-b]pyridin-2-amine]
20 | 6.30 to 7.00 | Cc1cc(-c2ccc(N)nc2)cc2c1OCCN(c1nc(N)nc(C)c1C(C)C)C2 [Compound 24, 4-[7-(6-aminopyridin-3-yl)-9-methyl-2,3-dihydro-1,4-benzoxazepin-4(5H)-yl]-6-methyl-5-(1-methylethyl)pyrimidin-2-amine]
21 | 6.30 to 7.00 | Cc1cc(-c2cnc3sc(N)nc3c2)cc2c1OCCN(c1nccc(N)n1)C2 [Compound 25, 6-[4-(4-aminopyrimidin-2-yl)-9-methyl-2,3,4,5-tetrahydro-1,4-benzoxazepin-7-yl][1,3]thiazolo[5,4-b]pyridin-2-amine]
22 | 6.30 to 7.00 | Cc1cc(-c2cnc3sc(N)nc3c2)cc2c1OCCN(c1ncc(C#N)c(N)n1)C2 [Compound 26, 4-amino-2-[7-(2-amino[1,3]thiazolo[5,4-b]pyridin-6-yl)-9-methyl-2,3-dihydro-1,4-benzoxazepin-4(5H)-yl]pyrimidine-5-carbonitrile]
23 | 6.30 to 7.00 | Cc1cc(-c2cnc3sc(N)nc3c2)cc2c1OCCN(c1ncc(C(N)=O)c(N)n1)C2 [Compound 27, 4-amino-2-[7-(2-amino[1,3]thiazolo[5,4-b]pyridin-6-yl)-9-methyl-2,3-dihydro-1,4-benzoxazepin-4(5H)-yl]pyrimidine-5-carboxamide]
24 | ≥ 7.00 | Cc1cc(-c2cnc(Cl)c(NS(C)(=O)=O)c2)cc2c1OCCN(c1ncc(C#N)c(N)n1)C2 [Compound 28, N-{5-[4-(4-amino-5-cyanopyrimidin-2-yl)-9-methyl-2,3,4,5-tetrahydro-1,4-benzoxazepin-7-yl]-2-chloropyridin-3-yl}methanesulfonamide]
25 | ≥ 7.00 | Cc1cc(-c2cnc3sc(N)nc3c2)cc2c1OCCN(c1ncnc3c1CC[C@H](C)C3)C2 [Compound 30, 6-{9-methyl-4-[(7S)-7-methyl-5,6,7,8-tetrahydroquinazolin-4-yl]-2,3,4,5-tetrahydro-1,4-benzoxazepin-7-yl}[1,3]thiazolo[5,4-b]pyridin-2-amine]
26 | ≥ 7.00 | Cc1cc(-c2cnc3sc(N)nc3c2)cc2c1OCCN(c1nc(CN(C)C)nc(C)c1C(C)C)C2 [Compound 31, 6-(4-{2-[(dimethylamino)methyl]-6-methyl-5-(1-methylethyl)pyrimidin-4-yl}-9-methyl-2,3,4,5-tetrahydro-1,4-benzoxazepin-7-yl)[1,3]thiazolo[5,4-b]pyridin-2-amine]
